Measured values as given in publication PMC4946363 (Cancer Research and Treatment : Official Journal of Korean …, 2016).
Counter-ions that a name gives are not always drawn.

Tests used:
CML = CML patients; cited from earlier work
[1] = tested on: myeloid blast crisis and lymphoid blast crisis; settings: cited from earlier work
[2] = Stability of imatinib in the LC-MS/MS bioanalytical method validation
[3] = oral; cited from earlier work

Which Cytogenetic remission (CML) does the source give for interferon-α [IFN-α] here?
Its Cytogenetic remission is 6%-20%.

For `Cc1ccc(NC(=O)c2ccc(CN3CCN(C)CC3)cc2)cc1Nc1nccc(-c2cccnc2)n1` [imatinib mesylate], which “Response rate, lymphoid blast crisis” value ([1]; oral 300-1,000 mg/day, 14 out of 20 patients) is on record?
The value was 70%.

And the “Response rate, myeloid blast crisis” value ([1]; oral 300-1,000 mg/day, 21 out of 38 patients)?
Its value is 55%.

What about the “Complete hematologic response, myeloid blast crisis” value ([1]; oral 300-1,000 mg/day) of the same compound?
The value was 19%.

And the “Complete hematologic responses, lymphoid blast crisis” value ([1]; oral 300-1,000 mg/day)?
The value was 20%.

Which “Inter-patient CV, lnAUC0-24” value (ln-transformed AUC0-24) does the source give for `Cc1ccc(NC(=O)c2ccc(CN3CCN(C)CC3)cc2)cc1Nc1nccc(-c2cccnc2)n1` [imatinib] here?
The value was 25.2%.

What about the “Intra-patient CV, lnAUC0-24” value (ln-transformed AUC0-24, test and reference together) of the same compound?
The value was 12.3%.

What about the “Inter-patient CV, lnCmax” value (ln-transformed Cmax) of the same compound?
Its value is 20.4%.

What about the “Intra-patient CV, lnCmax” value (ln-transformed Cmax, test and reference together) of the same compound?
Its value is 13.6%.

What about the “Duration of remission from the commencement of therapy” value ([1]; responding patients continued on imatinib treatment) of the same compound?
Its value is 101 to 349 days.

What about the “In-injector stability, % change, HQC” value ([2]; 2-8°C, ~77 hr, high quality control) of the same compound?
The value was “–5.6%”.

And the “In-injector stability, % change, LQC” value ([2]; 2-8°C, ~77 hr, low quality control)?
Its value is 4.6%.

And the “Freeze thaw stability, % change, HQC” value ([2]; 3 cycles, high quality control)?
Its value is “–6.1%”.

And the “Freeze thaw stability, % change, LQC” value ([2]; 3 cycles, low quality control)?
The value was 2.2%.

And the “Long-term stability, accuracy, HQC” value ([2]; 70 days, high quality control)?
The value was 97.4%.

And the “Long-term stability, accuracy, LQC” value ([2]; 70 days, low quality control)?
Its value is 95.7%.

And the “Long-term stability, accuracy, MQC” value ([2]; 70 days, medium quality control)?
The value was 101.5%.

And the “Bench top stability, % change, HQC” value ([2]; room temperature, ~7 hr, high quality control)?
Its value is “–7.2%”.

What about the “Bench top stability, % change, LQC” value ([2]; room temperature, ~7 hr, low quality control) of the same compound?
Its value is 10.2%.

And the “Time to attain peak plasma concentration (Cmax)” value [3]?
The value was 2 to 4 h.
